“And” between values parts separate entries of the source, which are not always exact repeats. Equal entries are not always repeated. Where two headings read alike, the source gives them in different places.
Key:
DENV-2 RL strain [1] = test: In vivo kinetics study, low viral inoculum (10^2 PFU)
DENV-2 RL strain [2] = test: Antiviral assay, viral RNA RT-qPCR, Vero cells; format: cell-based
INF-A Taiwan/1/86 = test: microbe, parasite or virus in culture; format: cell-based; conditions: Influenza A virus, MDCK
Plasma protein binding = format: in vitro ADME; conditions: mouse, mice
[3] = ATPLite cell viability assay; format: cell-based, human; conditions: human, THP-1/DC-SIGN cells
Experimental: (§1) In parallel, the toxicity was measured using an ATPLite cell viability luminescence assay (PerkinElmer). The assays were performed in three different cell types (Vero, Huh-7 and THP-1/DC-SIGN) as described in ref. [3] to exclude cell-specific activity of the compound.

THP-1/DC-SIGN cells = test: ATPLite cell viability assay; format: cell-based, human
Experimental: as §1

panel of 20 DENV strains = test: DENV genotype panel (20 strains) RT-qPCR, Vero E6; format: cell-based, DENV-1–4; conditions: Dengue virus, DENV4 / genotype 3, Vero C1008, read-out: mean EC50, range
Experimental: A total of 20 DENV strains, representing the available genotypes within the four DENV serotypes, were used in the in vitro genotype panel, from which 19 viruses were described previously in ref. [3] and one additional virus, DENV-1/45AZ5 (ref. [54]), was added.
A potential toxic effect on host cells was tested in parallel, while omitting virus infection, using the MTS/PMS method (Promega) for Vero cells, or by high-content imaging for C6/36 cells, as described previously. […] RT–qPCR data were analysed using the QuantStudio 12K Flex software (v.1.2.3) or SDS v.1.2 Applied Biosystems software. Inhibition values for antiviral molecules were plotted using KaleidaGraph plotting software (v.4.03, Synergy Software).

[4] = 20 mg/kg/d, day 4 p.i., individual mice
[5] = 20 mg/kg/d, day 5 p.i., individual mice
[6] = JNJ-1802 0.2 mg/kg/d, day 5 p.i., individual mice, 0.2 mg/kg/day
[7] = JNJ-1802 0.2 mg/kg/d, day 6 p.i., individual mice, 0.2 mg/kg/day
[8] = JNJ-1802 0.2 mg/kg/d, day 8 p.i., individual mice, 0.2 mg/kg/day
[9] = JNJ-1802 0.2 mg/kg/d, day 11 p.i., individual mice
[10] = JNJ-1802 2 mg/kg/d, day 5 p.i., individual mice
[11] = JNJ-1802 2 mg/kg/d, day 6 p.i., individual mice
[12] = JNJ-1802 2 mg/kg/d, day 8 p.i., individual mice
[13] = JNJ-1802 2 mg/kg/d, day 11 p.i., individual mice, 2 mg/kg/day
[14] = JNJ-1802 20 mg/kg/d, day 5 p.i., individual mice
[15] = JNJ-1802 20 mg/kg/d, day 6 p.i., individual mice
[16] = JNJ-1802 20 mg/kg/d, day 8 p.i., individual mice
[17] = JNJ-1802 20 mg/kg/d, day 11 p.i., individual mice

COc1cc(N[C@H](C(=O)c2c[nH]c3ccc(OC(F)(F)F)cc23)c2ccc(Cl)cc2OC)cc(S(C)(=O)=O)c1 [JNJ-1802]
In vivo kinetics, Copies/ml (DENV-2 RL strain [1]; [4]): 3.93E+02 Copies/ml
In vivo kinetics, Log10 of Copies/ml (DENV-2 RL strain [1]; [4]): 2.5940 Log10
In vivo kinetics, Mean of Log10 (DENV-2 RL strain [1]; 20 mg/kg/d, day 5 p.i., group mean): 2.76 Log10
In vivo kinetics, Copies/ml (DENV-2 RL strain [1]; [5]): 3.93E+02 Copies/ml and 7.90E+03 Copies/ml
In vivo kinetics, Log10 of Copies/ml (DENV-2 RL strain [1]; [5]): 2.5940 Log10 and 3.8977 Log10
effect on body weight (DENV-2 RL strain [1]; 20, 2 or 0.2 mg per kg per day b.i.d., 6 days): did not affect body weight
mean viral load vs vehicle (DENV-2 RL strain [1]; 20 and 2 mg per kg per day b.i.d., on 6 out of 8 days): reduced to undetectable levels
In vivo kinetics - viral RNA, Copies/ml (DENV-2 RL strain [1]; [6]): 4.57E+04 Copies/ml and 9.46E+04 Copies/ml and 4.38E+05 Copies/ml
In vivo kinetics - viral RNA, Log10 (DENV-2 RL strain [1]; [6]): 4.6597 Log10 and 4.9759 Log10 and 5.6413 Log10
In vivo kinetics - viral RNA, Mean of Log10 (DENV-2 RL strain [1]; JNJ-1802 0.2 mg/kg/d, day 6 p.i., group mean): 4.69 Log10
In vivo kinetics - viral RNA, Copies/ml (DENV-2 RL strain [1]; [7]): 4.46E+04 Copies/ml and 2.63E+04 Copies/ml and 2.31E+04 Copies/ml and 1.84E+05 Copies/ml and 8.21E+04 Copies/ml and 8.40E+03 Copies/ml
In vivo kinetics - viral RNA, Log10 (DENV-2 RL strain [1]; [7]): 4.6493 Log10 and 4.4198 Log10 and 4.8549 Log10 and 5.1560 Log10 and 4.3639 Log10 and 5.2645 Log10 and 4.9143 Log10 and 3.9243 Log10
In vivo kinetics - viral RNA, Mean of Log10 (DENV-2 RL strain [1]; JNJ-1802 0.2 mg/kg/d, day 8 p.i., group mean): 3.63 Log10
In vivo kinetics - viral RNA, Copies/ml (DENV-2 RL strain [1]; [8]): 3.93E+02 Copies/ml and 4.25E+05 Copies/ml and 5.92E+05 Copies/ml
In vivo kinetics - viral RNA, Log10 (DENV-2 RL strain [1]; [8]): 2.5940 Log10 and 5.6283 Log10 and 5.7725 Log10
In vivo kinetics - viral RNA, Mean of Log10 (DENV-2 RL strain [1]; JNJ-1802 0.2 mg/kg/d, day 11 p.i., group mean): 2.59 Log10
In vivo kinetics - viral RNA, Copies/ml (DENV-2 RL strain [1]; [9]): 3.93E+02 Copies/ml
In vivo kinetics - viral RNA, Log10 (DENV-2 RL strain [1]; [9]): 2.5940 Log10
In vivo kinetics - viral RNA, Copies/ml (DENV-2 RL strain [1]; [10]): 3.93E+02 Copies/ml
In vivo kinetics - viral RNA, Log10 (DENV-2 RL strain [1]; [10]): 2.5940 Log10
In vivo kinetics - viral RNA, Mean of Log10 (DENV-2 RL strain [1]; JNJ-1802 2 mg/kg/d, day 6 p.i., group mean): 2.59 Log10
In vivo kinetics - viral RNA, Copies/ml (DENV-2 RL strain [1]; [11]): 3.93E+02 Copies/ml
In vivo kinetics - viral RNA, Log10 (DENV-2 RL strain [1]; [11]): 2.5940 Log10
In vivo kinetics - viral RNA, Mean of Log10 (DENV-2 RL strain [1]; JNJ-1802 2 mg/kg/d, day 8 p.i., group mean): 2.59 Log10
In vivo kinetics - viral RNA, Copies/ml (DENV-2 RL strain [1]; [12]): 3.93E+02 Copies/ml
In vivo kinetics - viral RNA, Log10 (DENV-2 RL strain [1]; [12]): 2.5940 Log10
In vivo kinetics - viral RNA, Mean of Log10 (DENV-2 RL strain [1]; JNJ-1802 2 mg/kg/d, day 11 p.i., group mean): 2.74 Log10
In vivo kinetics - viral RNA, Copies/ml (DENV-2 RL strain [1]; [13]): 3.93E+02 Copies/ml and 3.01E+03 Copies/ml
In vivo kinetics - viral RNA, Log10 (DENV-2 RL strain [1]; [13]): 2.5940 Log10 and 3.4790 Log10
In vivo kinetics - viral RNA, Copies/ml (DENV-2 RL strain [1]; [14]): 3.93E+02 Copies/ml
In vivo kinetics - viral RNA, Log10 (DENV-2 RL strain [1]; [14]): 2.5940 Log10
In vivo kinetics - viral RNA, Mean of Log10 (DENV-2 RL strain [1]; JNJ-1802 20 mg/kg/d, day 6 p.i., group mean): 2.59 Log10
In vivo kinetics - viral RNA, Copies/ml (DENV-2 RL strain [1]; [15]): 3.93E+02 Copies/ml
In vivo kinetics - viral RNA, Log10 (DENV-2 RL strain [1]; [15]): 2.5940 Log10
In vivo kinetics - viral RNA, Mean of Log10 (DENV-2 RL strain [1]; JNJ-1802 20 mg/kg/d, day 8 p.i., group mean): 2.59 Log10
In vivo kinetics - viral RNA, Copies/ml (DENV-2 RL strain [1]; [16]): 3.93E+02 Copies/ml
In vivo kinetics - viral RNA, Log10 (DENV-2 RL strain [1]; [16]): 2.5940 Log10
In vivo kinetics - viral RNA, Mean of Log10 (DENV-2 RL strain [1]; JNJ-1802 20 mg/kg/d, day 11 p.i., group mean): 2.59 Log10
In vivo kinetics - viral RNA, Copies/ml (DENV-2 RL strain [1]; [17]): 3.93E+02 Copies/ml
In vivo kinetics - viral RNA, Log10 (DENV-2 RL strain [1]; [17]): 2.5940 Log10
In vivo kinetics, Mean of Log10 (DENV-2 RL strain [1]; mouse, in vivo): 2.78 Log10
In vivo kinetics - viral RNA, Copies/ml (DENV-2 RL strain [1]; mouse, in vivo, 0.2 mg/kg/day): 7.16E+04 Copies/ml and 1.43E+05 Copies/ml
EC90 (DENV-2 RL strain [2]; Dengue virus, DENV2, Vero, Vero): 0.275 ± 0.081 nM
EC50 (DENV-2 RL strain [2]; Dengue virus, DENV2, Vero, Vero cells, DENV-2RL, EXP1-EXP3, read-out: EC50, single experiments): 0.041 nM
EC90 (DENV-2 RL strain [2]; Dengue virus, DENV2, Vero, Vero cells, DENV-2RL, EXP1-EXP3, read-out: EC90, single experiments): 0.19 nM
EC50 (DENV-2 RL strain [2]; Dengue virus, DENV2, Vero, Vero cells, DENV-2RL, median, read-out: EC50 MEDIAN): 0.068 nM
EC90 (DENV-2 RL strain [2]; Dengue virus, DENV2, Vero, Vero cells, DENV-2RL, median, read-out: EC90 MEDIAN): 0.29 nM
EC50 (DENV-2 RL strain [2]; Dengue virus, DENV2, Vero, Vero, read-out: EC50): 0.062 ± 0.019 nM
EC50 (DENV-2 RL strain [2]; Vero cells, DENV-2RL, EXP1-EXP3, read-out: EC50, single experiments): 0.077 nM
EC90 (DENV-2 RL strain [2]; Vero cells, DENV-2RL, EXP1-EXP3, read-out: EC90, single experiments): 0.35 nM
EC50 (INF-A Taiwan/1/86): > 2600 nM
EC50 (INF-A Taiwan/1/86; read-out: EC50, Mean): > 25000 nM
EC90 (INF-A Taiwan/1/86; read-out: EC90, Mean): > 25000 nM
fraction unbound (Plasma protein binding): < 0.001
CC50 [3]: > 500 nM
CC50 (THP-1/DC-SIGN cells; individual data, read-out: CC50, individual data): > 500 nM
CC50 (THP-1/DC-SIGN cells; mean, read-out: CC50 Mean): > 500 nM
EC50 (panel of 20 DENV strains): 0.04 to 1.8 nM
